Reference: ChEMBL document CHEMBL1139538, “ERbeta ligands. 3. Exploiting two binding orientations of the 2-phenylnaphthalene scaffold to achieve ERbeta selectivity” (J Med Chem, 2005)

Experiments:
Estrogen receptor beta = Estrogen receptor beta (Homo sapiens, UniProt Q92731)
Estrogen receptor = biological target: T1, Estrogen receptor (Homo sapiens, UniProt P03372)
T1 sequence (P03372 whole entry): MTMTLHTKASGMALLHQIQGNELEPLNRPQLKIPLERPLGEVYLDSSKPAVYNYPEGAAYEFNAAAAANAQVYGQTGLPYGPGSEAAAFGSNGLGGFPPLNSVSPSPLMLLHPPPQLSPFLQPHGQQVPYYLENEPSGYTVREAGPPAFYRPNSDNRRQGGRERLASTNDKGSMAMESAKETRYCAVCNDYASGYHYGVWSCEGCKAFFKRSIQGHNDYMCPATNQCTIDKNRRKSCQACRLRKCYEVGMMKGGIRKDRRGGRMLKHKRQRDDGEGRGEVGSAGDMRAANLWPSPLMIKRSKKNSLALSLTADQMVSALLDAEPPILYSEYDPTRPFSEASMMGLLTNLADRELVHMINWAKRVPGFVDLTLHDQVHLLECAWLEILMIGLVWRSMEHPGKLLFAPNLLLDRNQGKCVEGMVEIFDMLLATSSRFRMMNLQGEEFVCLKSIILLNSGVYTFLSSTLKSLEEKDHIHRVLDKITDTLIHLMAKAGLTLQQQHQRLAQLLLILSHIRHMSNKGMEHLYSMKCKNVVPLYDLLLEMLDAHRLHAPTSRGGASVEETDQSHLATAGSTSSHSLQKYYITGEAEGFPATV
Description: Inhibition of [3H]17-beta-estradiol binding to human estrogen receptor alpha expressed in Escherichia coli

Rattus norvegicus [1] = assay: Effect of oral administration of 1 mg/kg compound on colon histology (haemoglobin) in HLA-B27 transgenic rats; format: functional
[2] = biological target: T2, Estrogen receptor (Rattus norvegicus) (UniProt P06211+Q62986)
Description: Effect on uterine weight in immature rats in combination with 17R-ethinyl-17-beta-estradiol after 3 days

Rattus norvegicus [3] = assay: Effect of oral administration of 10 mg/kg compound on colon histology (haemoglobin) in HLA-B27 transgenic rats; format: functional
[4] = biological target: T2, Estrogen receptor (Rattus norvegicus); remark: listed apart in the source
Description: Effect on uterine weight of immature rats at 2 mg/rat/day dose after 3 days

Chain of Estrogen receptor beta (Q92731 whole entry): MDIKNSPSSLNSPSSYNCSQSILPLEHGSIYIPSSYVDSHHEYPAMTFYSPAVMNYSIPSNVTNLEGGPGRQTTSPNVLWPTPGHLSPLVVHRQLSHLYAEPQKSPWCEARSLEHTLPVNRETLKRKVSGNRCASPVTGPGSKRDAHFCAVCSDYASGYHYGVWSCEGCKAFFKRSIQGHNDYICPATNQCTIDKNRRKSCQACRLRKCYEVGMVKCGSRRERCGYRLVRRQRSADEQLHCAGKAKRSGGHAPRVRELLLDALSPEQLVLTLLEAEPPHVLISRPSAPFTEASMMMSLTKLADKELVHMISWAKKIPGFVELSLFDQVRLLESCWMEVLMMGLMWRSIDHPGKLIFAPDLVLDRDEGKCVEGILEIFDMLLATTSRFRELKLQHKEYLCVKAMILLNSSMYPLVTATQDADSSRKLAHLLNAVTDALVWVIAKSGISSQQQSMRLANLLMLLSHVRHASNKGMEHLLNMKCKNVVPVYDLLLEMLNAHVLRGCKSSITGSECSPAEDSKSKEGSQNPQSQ

Row | Structure (SMILES) | IC50 (Estrogen receptor beta) | IC50 (Estrogen receptor) | other results
1 | N#Cc1cc(-c2ccc(O)cc2)cc2ccc(O)c(Br)c12 | 12 nM | 131 nM | 
2 | Oc1ccc(-c2ccc3c(Br)c(O)ccc3c2)cc1 | 13 nM | 266 nM | 
3 | Oc1ccc2cc(-c3ccccc3O)ccc2c1 | 2000 nM | > 5000 nM | 
4 | Oc1ccc2cc(-c3ccc(O)c(Cl)c3)ccc2c1 | 11 nM | 107 nM | 
5 | Oc1ccc2cc(-c3cc(F)c(O)c(F)c3)ccc2c1Cl | 10.6 nM |  | 
6 | Oc1ccc(-c2ccc3c(Cl)c(O)ccc3c2)cc1 |  | 91 nM | 
7 | Oc1cc(F)c(-c2ccc3c(Cl)c(O)ccc3c2)cc1F | 8.5 nM | 118 nM | 
8 | COc1cc(O)ccc1-c1ccc2cc(O)ccc2c1 |  | 174 nM | 
9 | Oc1ccc(-c2cc(Cl)c3c(Cl)c(O)ccc3c2)cc1 | 9 nM | 43 nM | 
10 | C#Cc1cc(-c2ccc(O)c(F)c2)cc2ccc(O)cc12 | 6.3 nM | 247 nM | 
11 | Oc1ccc2cc(-c3cc(F)c(O)c(F)c3)ccc2c1 | 8.4 nM |  | 
12 | N#Cc1cc(O)c(C#N)c2ccc(-c3ccc(O)c(F)c3)cc12 | 28 nM | 877 nM | 
13 | Cc1c(O)cc(C#N)c2cc(-c3ccc(O)c(F)c3)ccc12 | 6 nM | 406 nM | 
14 | Oc1cccc(-c2ccc3ccc(O)cc3c2)c1 | 566 nM | 2640 nM | 
15 | CC#Cc1cc(-c2ccc(O)c(F)c2)cc2ccc(O)cc12 | 10 nM | 343 nM | 
16 | Oc1ccc(-c2ccc3ccc(O)cc3c2)cc1 | 44 nM | 442 nM | 
17 | Oc1ccc(-c2ccc3ccccc3c2)cc1 |  | 638 nM | 
18 | C=Cc1cc(O)cc2ccc(-c3ccc(O)c(F)c3)cc12 | 7.3 nM | 527 nM | 
19 | N#Cc1cc(-c2cc(F)c(O)cc2F)cc2ccc(O)cc12 | 6.9 nM | 186 nM | 
20 | Oc1cccc(-c2ccc3c(O)cccc3c2)c1 | 205 nM | 1450 nM | 
21 | Oc1ccc2cc(-c3ccccc3)ccc2c1 | 374 nM | 1340 nM | 
22 | O=[N+]([O-])c1c(O)ccc2cc(-c3ccc(O)cc3)ccc12 | 199 nM | 709 nM | 
23 | Oc1ccc2ccc(-c3ccccc3)cc2c1 |  | 3400 nM | 
24 | Cc1cc(O)ccc1-c1ccc2c(Cl)c(O)ccc2c1 |  | 40 nM | 
25 | Oc1ccc(-c2ccc3cc(O)ccc3c2)cc1 | 16.3 nM | 211 nM | 
26 | N#Cc1cc(-c2ccc(O)c(F)c2)cc2ccc(O)cc12 |  |  | Activity (Rattus norvegicus [1]): 0.45 mg/mL; Weight [2]: 81.9 mg; Activity (Rattus norvegicus [3]): 0.35 mg/mL; Weight [4]: 23.3 mg
27 | Oc1ccc(-c2ccc3c(-c4ccccc4)c(O)ccc3c2)cc1 | 748 nM | 1230 nM | 
28 | Cc1cc(O)ccc1-c1ccc2cc(O)ccc2c1 | 10 nM | 40 nM | 
29 | Oc1cccc(-c2ccc3cc(O)ccc3c2)c1 | 30 nM |  | 
30 | Oc1ccc(-c2ccc3c(F)c(O)ccc3c2)cc1 | 7 nM | 77 nM | 

Second part, led by results:

Row | IC50 (Estrogen receptor beta) | IC50 (Estrogen receptor) | Structure (SMILES) | other results
31 | 2.6 nM | 55 nM | N#Cc1cc(O)c(Cl)c2ccc(-c3ccc(O)c(F)c3)cc12 | 
32 | 2 nM | 24 nM | Oc1ccc(-c2ccc3cc(O)ccc3c2)c(F)c1 | 
33 | 2 nM | 84 nM | N#Cc1cc(O)cc2ccc(-c3ccc(O)cc3)cc12 | 
34 | 3.4 nM | 35 nM | Oc1cc(F)c(-c2ccc3c(Cl)c(O)ccc3c2)c(F)c1 | 
35 | 5 nM |  | Oc1ccc2cc(-c3ccc(O)c(F)c3)ccc2c1 | 
36 | 3 nM | 98 nM | N#Cc1cc(O)c(Cl)c2ccc(-c3ccc(O)cc3)cc12 | 
37 | 5.5 nM | 180 nM | CC#Cc1cc(O)cc2ccc(-c3ccc(O)c(F)c3)cc12 | 
38 | 2.2 nM | 45 nM | N#Cc1cc(-c2c(F)cc(O)cc2F)cc2ccc(O)cc12 | 
39 | 1.5 nM | 21 nM | Oc1ccc2cc(-c3ccc(O)c(F)c3)cc(F)c2c1 | 
40 | 6 nM | 109 nM | N#Cc1cc(-c2ccc(O)cc2)cc2ccc(O)c(Cl)c12 | 
41 | 4.5 nM | 116 nM | N#Cc1cc(O)c(Br)c2ccc(-c3ccc(O)c(F)c3)cc12 | 
42 | 1.2 nM | 73 nM | C#Cc1cc(O)cc2ccc(-c3ccc(O)c(F)c3)cc12 | 
43 | 5.8 nM |  | Oc1ccc(-c2ccc3c(O)cccc3c2)cc1 | 
44 | 2.5 nM | 113 nM | CCc1cc(O)cc2ccc(-c3ccc(O)c(F)c3)cc12 | 
45 | 2.4 nM | 235 nM | CCc1cc(-c2ccc(O)c(F)c2)cc2ccc(O)cc12 | 
46 | 2.8 nM | 27 nM | Oc1ccc2cc(-c3cc(F)c(O)cc3F)ccc2c1 | 
47 | 2.1 nM | 96 nM | N#Cc1cc(O)cc2ccc(-c3ccc(O)c(F)c3)cc12 | 
48 | 1.1 nM | 40 nM | Oc1ccc(-c2cc(F)c3c(Cl)c(O)ccc3c2)cc1 | 
49 | 5.6 nM | 312 nM | N#Cc1cc(-c2ccc(O)c(F)c2)cc2ccc(O)c(F)c12 | 
50 | 1.6 nM | 22 nM | Oc1ccc(-c2cc(F)c3cc(O)ccc3c2)cc1 | 
51 | 4.4 nM | 254 nM | C=Cc1cc(-c2ccc(O)c(F)c2)cc2ccc(O)cc12 | 
52 | 4 nM |  | Oc1ccc(-c2ccc3c(Cl)c(O)ccc3c2)cc1F | 
53 | 1.4 nM |  | Oc1ccc(-c2ccc3cc(O)ccc3c2)c(Cl)c1 | 
54 | 0.5 nM | 26 nM | N#Cc1cc(-c2ccc(O)cc2F)cc2ccc(O)cc12 | 
55 | 2.3 nM | 10.3 nM | Oc1cc(F)c(-c2ccc3cc(O)ccc3c2)c(F)c1 | 
56 | 3.4 nM | 231 nM | O=Cc1cc(-c2ccc(O)c(F)c2)cc2ccc(O)cc12 | 
57 | 2.3 nM | 30 nM | Oc1ccc(-c2cc(Cl)c3cc(O)ccc3c2)cc1 | 
58 | 1.2 nM | 58 nM | Oc1ccc(-c2ccc3c(Cl)c(O)ccc3c2)c(F)c1 | 
59 | 1.1 nM | 73 nM | O=Cc1cc(O)cc2ccc(-c3ccc(O)c(F)c3)cc12 | 
60 | 3.3 nM | 36 nM | Oc1ccc(-c2ccc3c(Cl)c(O)ccc3c2)c(Cl)c1 | 
